Data as given in patent US10709709B2, “Substituted carbonucleoside derivatives useful as anticancer agents” (Pfizer Inc., priority 2016, dated 2020).

The molecules below were run against PRMT5/MEP50 protein complex (Homo sapiens (Human), UniProt O14744) (assay: PRMT5 biochemical assay (3H-SAM methylation of H4(1-21) peptide, filter plate scintillation)). Conditions: 10 nM PRMT5/MEP50 complex, 200 nM H4(1-21) peptide, 1 uM SAM, 25 minute incubation at room temperature.
Procedure: Biochemical Assay Methods
Compounds were solubilized in DMSO and serially diluted, using 3-fold dilutions, into 100% DMSO at a concentration 50-fold greater than the desired assay concentration. Following dilution, 1 ul was added to an empty 96-well microtiter plate. PRMT5/MEP50 protein complex was combined with H4(1-21) peptide ([…]) in PRMT5 assay buffer (50 mM Tris pH 8.5, 50 mM NaCl, 5 mM MgCl2, 1 mM EDTA, 1 mM TCEP) and 44 ul was added to the microtiter plate containing compound. S-Adenosyl-L-methionine (SAM) was prepared by combining ^3H labelled SAM with unlabelled SAM in PRMT5 assay buffer such that the final SAM concentration was 10 uM and the specific activity was 0.2 uCi/ul. The reaction was initiated by adding 5 ul of SAM stock to the microtiter plate. The final reaction conditions were 10 nM PRMT5/MEP50 complex, 200 nM peptide and 1 uM SAM. Following a 25 minute incubation at room temperature, the reaction was stopped with the addition of 100 uL of 20% TCA. The 3H-peptide product was captured using a 96-well filter plate (MSIPN4B, Millipore) and washed 5 times with PBS buffer. Scintillation fluid (100 ul) was added to the dried filter plate and counted in a liquid scintillation counter. IC50 values were determined by fitting the data to the standard 4-parameter dose response equation using Pfizer proprietary software.
Results for the biochemical assay of examples are summarized in Table 1, shown as IC50 values in μM.

Sequence of PRMT5/MEP50 protein complex (O14744 other isoform, or with tags, fused parts or gaps): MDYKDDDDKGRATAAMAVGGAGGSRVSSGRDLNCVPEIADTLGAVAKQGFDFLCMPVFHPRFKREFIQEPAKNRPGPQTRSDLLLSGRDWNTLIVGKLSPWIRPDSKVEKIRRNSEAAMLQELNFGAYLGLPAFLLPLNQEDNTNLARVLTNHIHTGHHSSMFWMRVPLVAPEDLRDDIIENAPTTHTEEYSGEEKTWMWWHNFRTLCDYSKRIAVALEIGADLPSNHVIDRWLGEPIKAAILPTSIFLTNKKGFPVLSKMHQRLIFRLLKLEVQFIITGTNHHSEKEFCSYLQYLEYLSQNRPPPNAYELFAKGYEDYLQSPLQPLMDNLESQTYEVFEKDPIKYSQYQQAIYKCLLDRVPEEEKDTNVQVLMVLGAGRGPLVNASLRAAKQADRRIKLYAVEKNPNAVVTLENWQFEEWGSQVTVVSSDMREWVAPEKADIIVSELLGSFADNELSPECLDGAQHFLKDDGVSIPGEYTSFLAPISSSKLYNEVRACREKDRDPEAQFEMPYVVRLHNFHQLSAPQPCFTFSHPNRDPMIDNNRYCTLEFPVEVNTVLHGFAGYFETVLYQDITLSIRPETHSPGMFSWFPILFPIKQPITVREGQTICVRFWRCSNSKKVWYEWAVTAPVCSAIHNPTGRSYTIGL
Sequence of PRMT5/MEP50 protein complex (Q9BQA1 whole entry partner): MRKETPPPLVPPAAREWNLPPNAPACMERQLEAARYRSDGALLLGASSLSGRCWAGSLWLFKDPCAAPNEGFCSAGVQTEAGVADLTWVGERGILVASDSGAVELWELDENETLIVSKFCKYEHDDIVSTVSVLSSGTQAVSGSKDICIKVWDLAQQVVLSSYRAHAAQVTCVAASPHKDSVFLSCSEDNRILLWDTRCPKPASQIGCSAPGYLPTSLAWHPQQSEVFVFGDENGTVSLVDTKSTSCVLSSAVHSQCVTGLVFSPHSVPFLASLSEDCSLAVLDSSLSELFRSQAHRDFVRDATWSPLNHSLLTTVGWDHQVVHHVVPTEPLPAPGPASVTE

| IC50 [nM] | Structure (SMILES) |
| --- | --- |
| 29500 | Cc1ncnc(N(C)[C@@H]2C[C@H]([C@@H](O)c3ccc(F)c(F)c3)[C@@H](O)[C@H]2O)n1 [Example 47, (1S,2R,3R,5R)-3-[(R)-(3,4-difluorophenyl)(hydroxy)methyl]-5-[methyl(4-methyl-1,3,5-triazin-2-yl)amino]cyclopentane-1,2-diol] |
| 297 | Cc1ncnc(N(C)[C@@H]2C[C@H]([C@H](O)c3ccc(F)c(F)c3)[C@@H](O)[C@H]2O)n1 [Example 46, (1S,2R,3R,5R)-3-[(S)-(3,4-difluorophenyl)(hydroxy)methyl]-5-[methyl(4-methyl-1,3,5-triazin-2-yl)amino]cyclopentane-1,2-diol] |
| 180 | Cc1ncnc2c1ccn2[C@@H]1C[C@H](Oc2nc(OC(C)C)c(F)c3c2CNCC3)[C@@H](O)[C@H]1O [Example 193, (1S,2S,3S,5R)-3-((4-fluoro-3-isopropoxy-5,6,7,8-tetrahydro-2,7-naphthyridin-1-yl)oxy)-5-(4-methyl-7H-pyrrolo[2,3-d]pyrimidin-7-yl)cyclopentane-1,2-diol] |
| 8 | Nc1ncnc2c1c(F)cn2[C@@H]1C[C@H](Oc2cccc3c2CNC3)[C@@H](O)[C@H]1O [Example 110, (1S,2S,3R,5S)-3-(4-amino-5-fluoro-7H-pyrrolo[2,3-d]pyrimidin-7-yl)-5-(2,3-dihydro-1H-isoindol-4-yloxy)cyclopentane-1,2-diol] |
| 2 | Cc1cc(O[C@H]2C[C@@H](n3ccc4c(C)ncnc43)[C@H](O)[C@@H]2O)c2c(c1F)CCNC2 [Example 155, (1S,2S,3S,5R)-3-((5-fluoro-6-methyl-1,2,3,4-tetrahydroisoquinolin-8-yl)oxy)-5-(4-methyl-7H-pyrrolo[2,3-d]pyrimidin-7-yl)cyclopentane-1,2-diol] |
| 4 | Cc1ncnc2c1ccn2[C@@H]1C[C@H](Oc2nccc3c2CNCC3)[C@@H](O)[C@H]1O [Example 157, (1S,2S,3R,5S)-3-(4-methyl-7H-pyrrolo[2,3-d]pyrimidin-7-yl)-5-((5,6,7,8-tetrahydro-2,7-naphthyridin-1-yl)oxy)cyclopentane-1,2-diol] |
| 11 | Cc1ncnc2c1ccn2[C@@H]1C[C@H](Oc2cccc3c2[C@H](N)CC3)[C@@H](O)[C@H]1O [Example 142, (1S,2S,3S,5R)-3-(((R)-3-amino-2,3-dihydro-1H-inden-4-yl)oxy)-5-(4-methyl-7H-pyrrolo[2,3-d]pyrimidin-7-yl)cyclopentane-1,2-diol] |
| 69 | Cc1ncnc2c1ccn2[C@@H]1C[C@H](Oc2ccc(F)cc2CN(C)C)[C@@H](O)[C@H]1O [Example 71, (1S,2S,3S,5R)-3-(2-((dimethylamino)methyl)-4-fluorophenoxy)-5-(4-methyl-7H-pyrrolo[2,3-d]pyrimidin-7-yl)cyclopentane-1,2-diol] |
| 144000 | Cc1ncnc2c1ccn2[C@H]1C[C@H](Oc2cccc3c2C(=O)NCC3)[C@@H](O)[C@H]1O [Example 76, 8-(((1S,2S,3S,4S)-2,3-dihydroxy-4-(4-methyl-7H-pyrrolo[2,3-d]pyrimidin-7-yl)cyclopentyl)oxy)-3,4-dihydroisoquinolin-1(2H)-one] |
| 5770 | O[C@@H]1[C@H](O)[C@@H]([C@@H](O)c2ccc(F)c(F)c2)C[C@H]1Nc1ncnc2[nH]ccc12 [Example 28, (1S,2R,3R,5R)-3-[(R)-(3,4-difluorophenyl)(hydroxy)methyl]-5-(7H-pyrrolo[2,3-d]pyrimidin-4-ylamino)cyclopentane-1,2-diol] |
| 14 | Cc1ncnc2c1ccn2[C@@H]1C[C@H](Oc2cc(-c3cc[nH]n3)cc3c2CNCC3)[C@@H](O)[C@H]1O [Example 171, (1S,2S,3S,5R)-3-((6-(1H-pyrazol-3-yl)-1,2,3,4-tetrahydroisoquinolin-8-yl)oxy)-5-(4-methyl-7H-pyrrolo[2,3-d]pyrimidin-7-yl)cyclopentane-1,2-diol] |
| 217 | Cc1ncnc2c1ccn2[C@@H]1C[C@H](C(F)c2ccc(F)cc2)[C@@H](O)[C@H]1O (single isomer, unassigned) [Example 21] |
| 42 | Nc1ncnc2c1c(F)cn2[C@@H]1C[C@H](Oc2cccc3ccncc23)[C@@H](O)[C@H]1O [Example 162] |
| 37800 | Cc1cc(F)ccc1O[C@H]1C[C@@H](n2ccc3c(C)ncnc32)[C@H](O)[C@@H]1O [Example 75, (1S,2S,3S,5R)-3-(4-fluoro-2-methylphenoxy)-5-(4-methyl-7H-pyrrolo[2,3-d]pyrimidin-7-yl)cyclopentane-1,2-diol] |
| 572 | Nc1ncnc2c1ccn2[C@@H]1C[C@H]([C@H](O)c2ccc(Cl)c(F)c2)[C@@H](O)[C@H]1O [Example 23, (1R,2S,3R,5R)-3-(4-amino-7H-pyrrolo[2,3-d]pyrimidin-7-yl)-5-((S)-(4-chloro-3-fluorophenyl)(hydroxy)methyl)cyclopentane-1,2-diol] |
| 991 | Cc1ncnc2c1ccn2[C@@H]1C[C@H](Oc2cccc3c2CN(C)C3)[C@@H](O)[C@H]1O [Example 82, (1S,2S,3S,5R)-3-[(2-methyl-2,3-dihydro-1H-isoindol-4-yl)oxy]-5-(4-methyl-7H-pyrrolo[2,3-d]pyrimidin-7-yl)cyclopentane-1,2-diol] |
| 266 | CN(c1ncnc(N)n1)[C@@H]1C[C@H]([C@H](O)c2ccc(F)c(F)c2)[C@@H](O)[C@H]1O [Example 37, (1R,2S,3R,5R)-3-[(4-amino-1,3,5-triazin-2-yl)(methyl)amino]-5-[(S)-(3,4-difluorophenyl) (hydroxy)methyl]cyclopentane-1,2-diol] |
| 65 | Cc1ncnc2c1ccn2[C@@H]1C[C@H](Oc2cc(C(C)(C)O)cc3c2CNCC3)[C@@H](O)[C@H]1O [Example 97, (1S,2S,3S,5R)-3-((6-(2-hydroxypropan-2-yl)-1,2,3,4-tetrahydroisoquinolin-8-yl)oxy)-5-(4-methyl-7H-pyrrolo[2,3-d]pyrimidin-7-yl)cyclopentane-1,2-diol] |
| 1060 | Cc1ncnc2c1ccn2[C@H]1C[C@@H](Oc2ccccc2CN)[C@H](O)[C@@H]1O [Example 63, (1R,2R,3R,5S)-3-(2-(aminomethyl)phenoxy)-5-(4-methyl-7H-pyrrolo[2,3-d]pyrimidin-7-yl)cyclopentane-1,2-diol] |
| 466 | CN(c1ccncn1)[C@@H]1C[C@H]([C@H](O)c2ccc(F)c(F)c2)[C@@H](O)[C@H]1O [Example 31, (1S,2R,3R,5R)-3-[(S)-(3,4-difluorophenyl)(hydroxy)methyl]-5-[methyl(pyrimidin-4-yl)amino]cyclopentane-1,2-diol] |
| 150 | Cc1nccc(N(C)[C@@H]2C[C@H]([C@H](O)c3ccc(F)c(F)c3)[C@@H](O)[C@H]2O)n1 [Example 35, (1S,2R,3R,5R)-3-[(S)-(3,4-difluorophenyl)(hydroxy)methyl]-5-[methyl(2-methylpyrimidin-4-yl)amino] cyclopentane-1,2-diol] |
| 3700 | Cc1ncnc2c1ccn2[C@@H]1C[C@H](C(C)(C)O)[C@@H](O)[C@H]1O [Example 18, (1S,2R,3S,5R)-3-(2-hydroxypropan-2-yl)-5-(4-methyl-7H-pyrrolo[2,3-d]pyrimidin-7-yl)cyclopentane-1,2-diol] |

| Structure (SMILES) | IC50 [nM] |
| --- | --- |
| Cc1ncnc2c1ccn2[C@@H]1C[C@H](Oc2c(F)cccc2F)[C@@H](O)[C@H]1O [Example 74, (1S,2S,3S,5R)-3-(2,6-difluorophenoxy)-5-(4-methyl-7H-pyrrolo[2,3-d]pyrimidin-7-yl)cyclopentane-1,2-diol] | 63300 |
| Cc1ncnc2c1ccn2[C@@H]1C[C@H]([C@H](O)c2cccc(Cl)c2)[C@@H](O)[C@H]1O [Example 7] | 120 |
